Reference: patent US7662851B2, “Use of specific cyklolignans” (Axelar AB, priority 2001, dated 2010)
Read-outs that look alike come from different tables or passages of the source.

Columns and labels:
[1] = system: fibroblast growth factor receptor (FGFR); experiment: Tyrosine phosphorylation of FGFR in intact FM55 melanoma cells; format: cell-based; settings: 0.05 μM, 1 h
Method: Cells were cultured to subconfluency in 6-cm plates, and then fresh medium containing 10% FBS and the desired compounds were added for 1 h. The cells were then lyzed and subjected to immunoprecipitation using specific antibodies. Immunoprecipitates were resolved by sodium dodecyl sulphate polyacrylamide gel electrophoresis (SDS-PAGE) and transferred to nitro-cellulose membranes and incubated with anti-phosphotyrosine antibody. Antibodies to actin (in cell extract) or IGF-1R beta subunit were used as loading controls. After detection the films were scanned for quantification.
FM55 melanoma cells were cultured in the same way as described in Experiment 1. When reaching a density of 65,000 cells/cm^2 in the dishes, they were treated for 1 h with 0 (control) and 0.05 μM of picropodophyllin and podophyllotoxin, respectively. The cells were then isolated and subjected to immunoprecipitation of the IGF-1R, fibroblast growth factor receptor (FGFR), platelet-derived growth factor receptor (PDGFR), epidermal growth factor receptor (EGFR), insulin receptor (IR) and insulin substrate-1 (IRS-1) using antibodies to respective molecules. IRS-1 is a substrate of IGF-1R, and therefore its phosphorylation is dependent on phosphorylated IGF-1R. Gelelectrophoresis, Western blotting and quantification of the different signals were performed as described above.

[2] = system: SK-MEL-5 melanoma cell line; experiment: Cell viability (XTT), SK-MEL-5; format: cell-based
Method: (§1) Cell proliferation kit II (Roche Inc.) is based on colorimetric change of the yellow tetrazolium salt XTT in orange formazan dye by the respiratory chain of viable cells (Roehm, N W, et al., J Immunol Methods 142:257-265, 1991). Cells seeded at a concentration of 5000/well in 100 μl medium in a 96-well plate were treated with different drugs in the given concentration. After 24 or 48 h the cells were incubated, according to the manufacturer's protocol, with XTT labelling mixture. After 4 h the formazan dye is quantified using a scanning multiwell spectrophotometer with a 495-nm filter. The absorbance is directly correlated with the number of viable cells. The standard absorbance curve was drawn by means of untreated cells seeded at a concentration of from 1000 to 10 000 cells/well with an increasing rate of 1000 cells/well. All standards and experiments were performed in triplicates.
(§2) 12 different types of cell lines were seeded in 96-well plates (medium volume in a well was 100 μl), at a concentration of 10,000 cells/cm^2 in Minimal Essential Medium supplemented with fetal calf serum. When the cells had reached a concentration of 65,000 cells/cm^2, they were treated with different doses of podophyllotoxin and picropodophyllin for 48 h. Cell viability was then assayed (see above). […]

[3] = system: SK-MEL-28 melanoma cell line; experiment: Cell viability (XTT), SK-MEL-28; format: cell-based
Method: as §1, §2

FM55 melanoma cell line = experiment: Cell viability (XTT), FM55; format: cell-based; settings: read-out: EC50 for cell viability
Method: as §1, §2

[4] = system: MCF-7 breast cancer cell line; experiment: Cell viability (XTT), MCF-7; format: cell-based; settings: Homo sapiens, read-out: EC50 for cell viability
Method: as §1, §2

[5] = system: R- cells (IGF-1R negative fibroblasts); experiment: Cell viability (XTT), R-; format: cell-based, murine; settings: Mus musculus, Fibroblast, 48 h, read-out: EC50 for cell viability
Method: as §1, §2

[6] = system: P6 cells (fibroblasts with overexpressed IGF-1R); experiment: Cell viability (XTT), P6; format: cell-based, murine; settings: Mus musculus, Fibroblast, 48 h, read-out: EC50 for cell viability
Method: as §1, §2

[7] = Local toxicity, subcutaneous osmotic pumps in nude mice; format: in vivo; set-up: key to Local toxicity: effects on skin and subcutaneous tissue: 0: no tissue reaction; *: light tissue reaction with hyperemia and mild inflammation; **: moderate tissue reaction with strong inflammation; ***: strong tissue reaction with necrosis and bleedings; settings: 7 days; for Local tissue reactions: subcutaneous osmotic pump loaded with 0.25 mg
Method: Control mice were treated with the solvent. 3-6 animals were treated in each group.
The first set of experiments was carried out to investigate possible local and systemic toxic effects of podophyllotoxin, deoxypodophyllotoxin and picropodophyllin on nude mice. In the first experiment osmotic pumps loaded with either drug-free solvent, podophyllotoxin (0.25 mg), deoxypodophyllotoxin (0.25 mg) or picropodophyllin (0.25 mg) were implanted subcutaneously in the flank region. The drugs are delivered subcutaneously with a constant flow of 0.6 μl/h over 7 days. The volume of the pumps was 100 μl. After 7 days the mice were killed and the skin and subcutaneous tissue adjacent to the outlet of the pumps were analyzed and scored for tissue reactions by an experienced pathologist. There were 3 mice in each group.

IGF-1R = IGF-1R (Homo sapiens, UniProt P08069); experiment: IGF-1R tyrosine autophosphorylation, sandwich ELISA, cell-free; format: biochemical; set-up: expressed in transfected cells; host or cells: P6 cell line (murine fibroblasts overexpressing human IGF-1R); receptor captured on plates with an antibody to the beta subunit
Sequence of IGF-1R (P08069 31-1367): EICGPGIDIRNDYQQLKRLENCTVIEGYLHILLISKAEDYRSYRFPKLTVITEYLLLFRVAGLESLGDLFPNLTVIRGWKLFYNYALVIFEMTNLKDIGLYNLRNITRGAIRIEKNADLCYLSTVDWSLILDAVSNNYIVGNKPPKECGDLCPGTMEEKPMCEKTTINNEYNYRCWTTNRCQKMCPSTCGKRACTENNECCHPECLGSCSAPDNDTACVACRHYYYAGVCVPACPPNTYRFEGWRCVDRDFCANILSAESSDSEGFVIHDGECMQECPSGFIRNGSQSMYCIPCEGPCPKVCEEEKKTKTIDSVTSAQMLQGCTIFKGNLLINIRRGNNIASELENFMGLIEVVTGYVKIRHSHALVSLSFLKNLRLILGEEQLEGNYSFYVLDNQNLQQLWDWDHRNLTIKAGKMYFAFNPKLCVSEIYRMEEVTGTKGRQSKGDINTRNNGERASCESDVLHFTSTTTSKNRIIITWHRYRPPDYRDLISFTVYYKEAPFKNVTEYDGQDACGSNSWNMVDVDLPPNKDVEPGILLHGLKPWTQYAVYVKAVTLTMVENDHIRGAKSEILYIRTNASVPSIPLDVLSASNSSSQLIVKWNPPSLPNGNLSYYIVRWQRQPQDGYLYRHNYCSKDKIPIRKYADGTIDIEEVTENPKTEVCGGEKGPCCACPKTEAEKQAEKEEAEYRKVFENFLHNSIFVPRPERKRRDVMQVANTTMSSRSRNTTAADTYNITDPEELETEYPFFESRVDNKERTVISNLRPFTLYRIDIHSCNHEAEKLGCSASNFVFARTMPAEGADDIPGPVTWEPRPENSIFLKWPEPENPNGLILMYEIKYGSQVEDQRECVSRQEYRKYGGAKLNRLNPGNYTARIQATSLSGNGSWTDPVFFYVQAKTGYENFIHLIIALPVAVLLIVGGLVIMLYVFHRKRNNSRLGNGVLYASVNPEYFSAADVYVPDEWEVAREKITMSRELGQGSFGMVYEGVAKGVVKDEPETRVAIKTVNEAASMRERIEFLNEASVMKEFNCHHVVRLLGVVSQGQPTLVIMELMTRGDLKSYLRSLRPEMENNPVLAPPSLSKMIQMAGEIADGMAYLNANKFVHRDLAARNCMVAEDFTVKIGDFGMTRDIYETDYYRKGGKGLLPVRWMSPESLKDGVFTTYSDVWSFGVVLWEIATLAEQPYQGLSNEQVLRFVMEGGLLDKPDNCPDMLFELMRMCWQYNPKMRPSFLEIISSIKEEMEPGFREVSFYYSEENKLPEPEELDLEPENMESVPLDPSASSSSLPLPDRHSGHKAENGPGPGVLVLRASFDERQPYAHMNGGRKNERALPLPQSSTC
Method: IGF-1R tyrosine autophosphorylation was analysed by a sandwich ELISA assay. Briefly, 96-well plates (Immunolon, Nunc) were coated overnight at 4° C. with 1 μg/well of the monoclonal antibody Ab-5 (LabVision) to the IGF-1R beta subunit. The plates were blocked with 1% BSA in PBS Tween for 1 h, then 80 µg/well of total protein lysate from the P6 cell line was added. As a negative control was used total protein lysate from the R-cell line. The investigated compounds were added in tyrosine kinase buffer without ATP at room temperature for 30 min, prior to kinase activation with ATP. Kinase assay was performed using the Sigma kit. After spectrophotometry the IC50 values of inhibitors were determined using the Regression function of Statistica program.
To investigate whether PPP interferes with the tyrosine autophosphorylation at the ATP level or at the substrate level (i.e., the tyrosine kinase domain of the IGF-1R […]), various concentrations of ATP (19-300 μM) were added to the reaction buffer during the assay.

## COc1cc([C@@H]2c3cc4c(cc3[C@H](O)[C@H]3COC(=O)[C@@H]23)OCO4)cc(OC)c1OC [Picropodophyllin, picropodophyllin]
[1]
  Level of phosphorylation in intact cells, substrate FGFR: 100 % OD
[2]; Homo sapiens, SK-MEL-5, 48 h; read-out: EC50 for cell viability
  EC50: 50 nM
[3]; Homo sapiens, SK-MEL-28, 48 h; read-out: EC50 for cell viability
  EC50: 30 nM
FM55 melanoma cell line; FM55, 48 h
  EC50: 70 nM
[4]; MCF7, MCF-7, 48 h
  EC50: 90 nM
[5]; R- (IGF-1R negative fibroblasts)
  EC50: > 15000 nM
[6]; P6 (fibroblasts with overexpressed IGF-1R)
  EC50: 20 nM
[7]
  Local tissue reactions: no visible reactions
[7]; subcutaneous osmotic pump, 7 mg/kg/d
  Local toxicity: effects on skin and subcutaneous tissue: 0
IGF-1R; cell-free, ATP 19-300 μM in reaction buffer, read-out: IC50, autophosphorylation of IGF-1R at various ATP concentrations
  IC50: 1 to 2 nM
IGF-1R; cell-free, FIG. 4, read-out: IC50, autophosphorylation of IGF-1R
  IC50: ~1 nM

## COc1cc([C@@H]2c3cc4c(cc3[C@H](O)[C@H]3COC(=O)[C@H]23)OCO4)cc(OC)c1OC [Podophyllotoxin, podophyllotoxin]
[1]
  Level of phosphorylation in intact cells, substrate FGFR: 105 % OD
[2]; Homo sapiens, SK-MEL-5, 48 h, read-out: EC50 for cell viability
  EC50: 20 nM
[3]; Homo sapiens, SK-MEL-28, 48 h, read-out: EC50 for cell viability
  EC50: 20 nM
FM55 melanoma cell line; 48 h
  EC50: 40 nM
[4]; MCF7, 48 h
  EC50: 70 nM
[5]
  EC50: > 15000 nM
[6]
  EC50: 30 nM
[7]
  Local tissue reactions: severe tissue reactions with necrosis, bleeding and inflammation
IGF-1R; in vitro, stated in description, read-out: IC50 for IGF-1R-inhibition when tested in vitro
  IC50: 1 nM
